Results: publication PMC7997411, “Discovery and Optimization of Selective Inhibitors of Meprin α (Part II)” (Pharmaceuticals, 2021)
Values joined by “and” are separate entries in the source; they are usually repeats but may differ in a detail not shown here. Identical values can stand only once. Like-named read-outs stand apart in the source and are kept apart here.

Columns and labels:
Meprin α [1] = conditions: cited from earlier work
MMP2 = biological target: T1, MMP2 (Homo sapiens, UniProt P08253); conditions: single value given, at 10 μM ref 11; cited from earlier work
T1 construct: purchased R&D Systems 902-MP
T1 sequence (P08253 110-660): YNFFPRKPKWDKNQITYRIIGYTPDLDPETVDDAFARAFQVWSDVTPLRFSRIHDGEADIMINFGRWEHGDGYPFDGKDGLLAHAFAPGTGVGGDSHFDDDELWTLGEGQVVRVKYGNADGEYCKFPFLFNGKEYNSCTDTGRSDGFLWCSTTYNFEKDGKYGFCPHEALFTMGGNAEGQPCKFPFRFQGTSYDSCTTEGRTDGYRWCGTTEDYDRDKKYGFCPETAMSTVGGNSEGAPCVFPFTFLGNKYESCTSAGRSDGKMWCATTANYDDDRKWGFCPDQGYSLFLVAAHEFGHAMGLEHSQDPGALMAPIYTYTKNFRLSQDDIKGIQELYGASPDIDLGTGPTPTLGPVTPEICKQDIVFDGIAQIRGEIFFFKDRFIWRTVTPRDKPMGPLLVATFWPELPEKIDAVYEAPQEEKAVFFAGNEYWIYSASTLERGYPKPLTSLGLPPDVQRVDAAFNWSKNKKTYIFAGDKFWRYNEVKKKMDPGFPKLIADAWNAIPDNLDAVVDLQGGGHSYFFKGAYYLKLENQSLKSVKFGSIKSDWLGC

ADAM17 = biological target: T2, ADAM17 (Homo sapiens, UniProt P78536); conditions: single value given, at 10 μM ref 11; cited from earlier work
T2 construct: purchased R&D Systems 930-ADB

MMP13 = biological target: T3, MMP13 (Homo sapiens, UniProt P45452); conditions: single value given, at 10 μM ref 11; cited from earlier work
T3 construct: purchased R&D Systems 511-MM

ADAM10 = biological target: T4, ADAM10 (Homo sapiens, UniProt O14672); conditions: single value given, at 10 μM ref 11; cited from earlier work
T4 construct: purchased R&D Systems 936-AD
T4 sequence (O14672 214-748): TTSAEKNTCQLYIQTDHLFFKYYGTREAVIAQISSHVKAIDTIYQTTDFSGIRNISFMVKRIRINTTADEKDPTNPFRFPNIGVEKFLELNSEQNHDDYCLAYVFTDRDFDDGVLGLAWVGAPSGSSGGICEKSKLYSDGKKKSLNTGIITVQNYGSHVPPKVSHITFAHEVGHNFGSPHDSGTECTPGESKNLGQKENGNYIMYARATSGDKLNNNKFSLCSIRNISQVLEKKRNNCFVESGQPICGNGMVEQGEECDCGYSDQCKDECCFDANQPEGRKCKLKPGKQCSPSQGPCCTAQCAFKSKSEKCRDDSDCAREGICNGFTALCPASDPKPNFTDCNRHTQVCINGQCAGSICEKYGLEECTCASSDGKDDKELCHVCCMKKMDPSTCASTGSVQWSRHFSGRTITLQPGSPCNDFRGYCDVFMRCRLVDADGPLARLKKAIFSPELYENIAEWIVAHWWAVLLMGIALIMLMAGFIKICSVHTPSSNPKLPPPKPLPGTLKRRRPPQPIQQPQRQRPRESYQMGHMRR

MMP9 = biological target: T5, MMP9 (Homo sapiens, UniProt P14780); conditions: single value given, at 10 μM ref 11; cited from earlier work
T5 construct: purchased R&D Systems 911-MP

Meprin β = conditions: cited from earlier work
human meprin β = biological target: T6, human meprin β (Homo sapiens, UniProt Q16820); experiment: Meprin β assay in a 384-well plate (fluorogenic substrate Mca-EDEDED-K(Dnp)); type: biochemical
T6 construct: His-tag; made in house; host or cells: BTI-TN-5B1-4 insect cells (baculovirus, amplified in Sf9)
T6 sequence (Q16820 62-701): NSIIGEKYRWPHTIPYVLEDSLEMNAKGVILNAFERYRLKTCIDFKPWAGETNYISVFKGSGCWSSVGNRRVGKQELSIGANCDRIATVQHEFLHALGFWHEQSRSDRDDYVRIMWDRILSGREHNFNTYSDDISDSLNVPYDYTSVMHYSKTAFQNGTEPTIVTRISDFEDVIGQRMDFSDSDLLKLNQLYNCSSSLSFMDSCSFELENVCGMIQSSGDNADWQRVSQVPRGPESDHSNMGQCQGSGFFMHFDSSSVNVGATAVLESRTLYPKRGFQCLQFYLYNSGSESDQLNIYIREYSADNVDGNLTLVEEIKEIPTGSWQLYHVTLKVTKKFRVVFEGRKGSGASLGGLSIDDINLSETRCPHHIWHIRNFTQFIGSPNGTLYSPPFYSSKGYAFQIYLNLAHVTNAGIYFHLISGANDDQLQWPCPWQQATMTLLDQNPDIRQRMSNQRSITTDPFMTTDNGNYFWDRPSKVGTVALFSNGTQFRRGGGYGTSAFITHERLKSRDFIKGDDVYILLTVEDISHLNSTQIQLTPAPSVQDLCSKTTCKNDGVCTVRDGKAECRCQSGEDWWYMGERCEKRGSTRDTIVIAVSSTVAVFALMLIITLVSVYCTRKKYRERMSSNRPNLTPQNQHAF
Protocol: (§1) Recombinant human meprin α and meprin β were expressed using the Bac-to-Bac expression system (Gibco Life Technologies, Paisley, UK) as described before. Media and supplements were obtained from Gibco Life Technologies. Recombinant Baculoviruses were amplified in adherently growing Spodoptera frugiperda (Sf)9 insect cells at 27 °C in Grace’s insect medium supplemented with 10% fetal bovine serum, 50 units/mL penicillin, and 50 μg/mL streptomycin. Protein expression was performed in 500 mL suspension cultures of BTI-TN-5B1-4 insect cells growing in Express Five SFM supplemented with 4 mM glutamine, 50 units/mL penicillin, and 50 μg/mL streptomycin in Fernbach-flasks using a Multitron orbital shaker (INFORS AG, Bottmingen, Switzerland). Cells were infected at a density of 2 × 10^6 cells/mL with an amplified viral stock at a MOI of ~10. […] Meprins were activated by trypsin, which was removed afterwards by affinity chromatography using a column containing immobilized chicken ovomucoid, a trypsin inhibitor.
(§2) Both assays followed the same general protocol. […] After 30 min incubation at RT, the reactions were started by addition of 5 µL of 2× solutions of substrates (20 µM, meprin α Mca-YVADAPK-K(Dnp), and for meprin β Mca-EDEDED-K(Dnp)).

meprin α [2] = biological target: T7, meprin α (Homo sapiens, UniProt Q16819); experiment: Meprin α assay in a 384-well plate (fluorogenic substrate Mca-YVADAPK-K(Dnp)); type: biochemical
T7 construct: Strep-tag; made in house; host or cells: BTI-TN-5B1-4 insect cells (baculovirus, amplified in Sf9)
T7 sequence (Q16819 66-746): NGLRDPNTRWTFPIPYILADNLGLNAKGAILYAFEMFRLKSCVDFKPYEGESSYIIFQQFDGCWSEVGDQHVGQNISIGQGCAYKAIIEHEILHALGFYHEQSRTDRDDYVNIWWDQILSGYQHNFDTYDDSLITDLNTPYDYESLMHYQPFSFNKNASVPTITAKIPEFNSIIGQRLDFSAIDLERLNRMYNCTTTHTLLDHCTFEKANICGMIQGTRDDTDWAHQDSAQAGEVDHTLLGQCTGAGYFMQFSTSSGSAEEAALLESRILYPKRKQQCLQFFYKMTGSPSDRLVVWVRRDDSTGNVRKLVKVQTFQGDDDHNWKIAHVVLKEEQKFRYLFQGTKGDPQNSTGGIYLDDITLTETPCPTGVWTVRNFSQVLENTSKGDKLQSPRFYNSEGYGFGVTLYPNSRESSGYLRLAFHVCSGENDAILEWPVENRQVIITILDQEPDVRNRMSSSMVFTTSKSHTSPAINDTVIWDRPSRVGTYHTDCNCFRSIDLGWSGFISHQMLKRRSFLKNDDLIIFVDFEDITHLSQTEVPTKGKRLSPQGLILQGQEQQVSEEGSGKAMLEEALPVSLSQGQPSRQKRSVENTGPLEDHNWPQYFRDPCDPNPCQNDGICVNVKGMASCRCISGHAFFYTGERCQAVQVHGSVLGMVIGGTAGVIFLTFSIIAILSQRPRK
Protocol: as §1, §2

T5 sequence (P14780 94-707): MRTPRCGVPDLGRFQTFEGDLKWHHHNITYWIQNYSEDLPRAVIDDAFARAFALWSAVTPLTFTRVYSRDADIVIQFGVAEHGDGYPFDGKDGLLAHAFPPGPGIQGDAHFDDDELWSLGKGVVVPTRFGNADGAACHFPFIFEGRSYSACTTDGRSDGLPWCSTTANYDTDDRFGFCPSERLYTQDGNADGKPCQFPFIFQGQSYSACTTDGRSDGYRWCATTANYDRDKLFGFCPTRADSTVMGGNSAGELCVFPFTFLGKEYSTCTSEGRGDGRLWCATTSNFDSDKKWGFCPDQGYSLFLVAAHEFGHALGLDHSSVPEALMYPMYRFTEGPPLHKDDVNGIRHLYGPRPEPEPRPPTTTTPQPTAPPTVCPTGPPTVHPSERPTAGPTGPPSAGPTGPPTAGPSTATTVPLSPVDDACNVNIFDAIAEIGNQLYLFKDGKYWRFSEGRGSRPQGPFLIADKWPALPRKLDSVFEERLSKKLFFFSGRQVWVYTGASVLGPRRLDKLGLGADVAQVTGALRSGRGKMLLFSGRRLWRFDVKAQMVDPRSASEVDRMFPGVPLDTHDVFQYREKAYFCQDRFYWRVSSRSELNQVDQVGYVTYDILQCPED
T2 sequence (P78536 215-824): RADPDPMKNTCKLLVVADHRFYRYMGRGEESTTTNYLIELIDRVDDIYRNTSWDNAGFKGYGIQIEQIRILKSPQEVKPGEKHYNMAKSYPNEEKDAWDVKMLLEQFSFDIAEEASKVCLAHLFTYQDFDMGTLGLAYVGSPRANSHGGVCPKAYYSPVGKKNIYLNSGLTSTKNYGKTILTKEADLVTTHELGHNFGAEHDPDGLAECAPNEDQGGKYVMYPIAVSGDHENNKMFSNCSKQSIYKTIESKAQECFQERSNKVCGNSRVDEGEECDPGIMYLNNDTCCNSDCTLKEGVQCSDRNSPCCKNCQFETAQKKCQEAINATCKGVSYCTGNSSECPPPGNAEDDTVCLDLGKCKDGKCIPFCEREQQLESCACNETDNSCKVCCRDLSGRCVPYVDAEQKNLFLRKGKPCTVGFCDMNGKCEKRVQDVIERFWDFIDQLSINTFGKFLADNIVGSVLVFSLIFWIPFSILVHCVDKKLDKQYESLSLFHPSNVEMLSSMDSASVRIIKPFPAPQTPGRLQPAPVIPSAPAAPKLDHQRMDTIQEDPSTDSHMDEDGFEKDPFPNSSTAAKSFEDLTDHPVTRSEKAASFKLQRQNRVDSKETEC

| SMILES | IC50 (human meprin β; triplicate, ± SD) [µM] | IC50 (meprin α [2]; triplicate, ± SD) | also measured |
| --- | --- | --- | --- |
| O=C(CN(Cc1ccc(Cl)c(O)c1F)Cc1ccc(Cl)c(O)c1F)NO [1c] | – | – | IC50 (Meprin α [1]): 0.19 ± 0.001 µM; MMP2 % activity remaining (MMP2): 95%; ADAM17 % activity remaining (ADAM17): 86%; MMP13 % activity remaining (MMP13): 86%; ADAM10 % activity remaining (ADAM10): 86%; MMP9 % activity remaining (MMP9): 91% |
| O=C(Cc1c(-c2ccccc2)noc1-c1ccccc1)NO [2c] | – | – | IC50 (Meprin α [1]): 0.004 ± 0.001 µM; MMP2 % activity remaining (MMP2): 87%; ADAM17 % activity remaining (ADAM17): 62%; MMP13 % activity remaining (MMP13): 80%; IC50 (Meprin β): 0.813 ± 0.001 µM; ADAM10 % activity remaining (ADAM10): 80%; MMP9 % activity remaining (MMP9): 86% |
| O=C(CSc1nnc(NC(=O)COc2ccccc2)s1)NO [SR19848] | – | – | IC50 (human meprin β): 0.329 µM; IC50 (meprin α [2]): 0.217 µM; meprin α/β selectivity (in words) (meprin α [2]; Figure 1): no meprin α/β selectivity |
| COc1cc(OC)nc(SCc2nnc(SCC(=O)NO)n2-c2ccc(C(F)(F)F)cc2)n1 [SR24003, 2-((5-(((4,6-dimethoxypyrimidin-2-yl)thio)methyl)-4-(4-(trifluoromethyl)phenyl)-4H-1,2,4-triazol-3-yl)thio)-N-hydroxyacetamide] | > 100 | 5.4 ± 1.2 µM | – |
| COc1ccc(-n2c(CSc3nc(C)cc(C)n3)nnc2SCC(=O)NO)cc1 [SR24139, 2-((5-(((4,6-dimethylpyrimidin-2-yl)thio)methyl)-4-(4-methoxyphenyl)-4H-1,2,4-triazol-3-yl)thio)-N-hydroxyacetamide] | 60 ± 7 | 4.1 ± 0.8 µM | – |
| COc1ccc(-n2c(CSc3nc(OC)cc(OC)n3)nnc2SCC(=O)NO)cc1 [SR24144, 2-((5-(((4,6-dimethoxypyrimidin-2-yl)thio)methyl)-4-(4-methoxyphenyl)-4H-1,2,4-triazol-3-yl)thio)-N-hydroxyacetamide] | > 100 | 8.7 ± 1.1 µM | inhibition of meprin β at 100 μM (in words) (human meprin β; 100 μM): complete lack of inhibition |
| COc1cc(OC)nc(SCc2nnc(SCC(=O)NO)n2-c2ccccc2OC)n1 [SR24459, 2-((5-(((4,6-dimethoxypyrimidin-2-yl)thio)methyl)-4-(2-methoxyphenyl)-4H-1,2,4-triazol-3-yl)thio)-N-hydroxyacetamide] | 52 ± 1 | 12.1 ± 3.9 µM | – |
| COc1cccc(-n2c(CSc3nc(OC)cc(OC)n3)nnc2SCC(=O)NO)c1 [SR24460, 2-((5-(((4,6-dimethoxypyrimidin-2-yl)thio)methyl)-4-(3-methoxyphenyl)-4H-1,2,4-triazol-3-yl)thio)-N-hydroxyacetamide] | 59 ± 10 | 10.3 ± 1.1 µM | – |
| COc1cc(OC)nc(SCc2nnc(SCC(=O)NO)n2-c2ccc(Br)cc2)n1 [SR24462, 2-((4-(4-bromophenyl)-5-(((4,6-dimethoxypyrimidin-2-yl)thio)methyl)-4H-1,2,4-triazol-3-yl)thio)-N-hydroxyacetamide] | > 100 | 11.2 ± 2.6 µM | – |
| COc1cc(OC)nc(SCc2nnc(SCC(=O)NO)n2-c2ccc(F)cc2)n1 [SR24463, 2-((5-(((4,6-dimethoxypyrimidin-2-yl)thio)methyl)-4-(4-fluorophenyl)-4H-1,2,4-triazol-3-yl)thio)-N-hydroxyacetamide] | > 100 | 10.4 ± 2.8 µM | – |
| COc1cc(OC)nc(SCc2nnc(SCC(=O)NO)n2-c2cccc(C)c2)n1 [SR24467, 2-((5-(((4,6-dimethoxypyrimidin-2-yl)thio)methyl)-4-(m-tolyl)-4H-1,2,4-triazol-3-yl)thio)-N-hydroxyacetamide] | > 100 | 2 µM and 10.3 µM | – |
| COc1cc(OC)nc(SCc2nnc(SCC(=O)NO)n2-c2cccnc2)n1 [SR24718, 2-((5-(((4,6-dimethoxypyrimidin-2-yl)thio)methyl)-4-(pyridin-3-yl)-4H-1,2,4-triazol-3-yl)thio)-N-hydroxyacetamide] | > 100 | 10.1 ± 2.3 µM | – |
| CCN(CC)c1ccc(-n2c(CSc3nc(OC)cc(OC)n3)nnc2SCC(=O)NO)cc1 [SR26465, 2-((4-(4-(diethylamino)phenyl)-5-(((4,6-dimethoxypyrimidin-2-yl)thio)methyl)-4H-1,2,4-triazol-3-yl)thio)-N-hydroxyacetamide] | 75 ± 15 | 0.6 ± 0.06 µM | meprin α/β fold selectivity (ratio of IC50 values) (meprin α [2]; meprin α over meprin β): > 100 fold |
| COc1cc(OC)nc(SCc2nnc(SCC(=O)NO)n2-c2ccc(N3CCOCC3)cc2)n1 [SR26466, 2-((5-(((4,6-dimethoxypyrimidin-2-yl)thio)methyl)-4-(4-morpholinophenyl)-4H-1,2,4-triazol-3-yl)thio)-N-hydroxyacetamide] | > 100 | 1.1 ± 0.1 µM | – |
| COc1cc(OC)nc(SCc2nnc(SCC(=O)NO)n2-c2cccc3ccccc23)n1 [SR26467, 2-((5-(((4,6-dimethoxypyrimidin-2-yl)thio)methyl)-4-(naphthalen-1-yl)-4H-1,2,4-triazol-3-yl)thio)-N-hydroxyacetamide] | > 100 | 2 ± 0.3 µM | – |
